From patent publication US7649092B2, “Urea derivatives as calcium channel blockers” (Neuromed Pharmaceuticals Ltd., priority 2004, dated 2010)
Read-outs that look alike come from different tables or passages of the source.

Columns and labels:
[1] = target: T1, human DiG T-type channels (Homo sapiens, UniProt O43497); assay: T-type calcium channel block, whole-cell patch clamp in HEK cell lines; type: cell-based
T1 construct: expressed in transfected cells
Method: Standard patch-clamp techniques were employed to identify blockers of T-type currents. Briefly, previously described HEK cell lines stably expressing human DiG T-type channels were used for all the recordings (passage #: 4-20, 37° C., 5% CO2). To obtain T-type currents, plastic dishes containing semi-confluent cells were positioned on the stage of a ZEISS AXIOVERT S100 microscope after replacing the culture medium with external solution (see below). Whole-cell patches were obtained using pipettes (borosilicate glass with filament, O.D.: 1.5 mm, I.D.: 0.86 mm, 10 cm length), fabricated on a SUTTER P-97 puller with resistance values of ˜5 MΩ (see below for internal solution).
In the non-inactivating protocol, the holding potential is set at −110 mV and with a pre-pulse at −100 mV for 1 second prior to the test pulse at −40 mV for 50 ms. […]
Test compounds were dissolved in external solution, 0.1-0.01% DMSO. After ˜10 min rest, they were applied by gravity close to the cell using a WPI microfil tubing. The “non-inactivated” pre-pulse was used to examine the resting block of a compound. The “inactivated” protocol was employed to study voltage-dependent block. However, the initial data shown below were mainly obtained using the non-inactivated protocol only. IC50 values are shown for various compounds of the invention in Table 5.

[2] = target: T2, rat brain N-type calcium channel subunits (α1B+α2δ+β1b cDNA subunits) (Rattus norvegicus, UniProt Q02294); assay: N-type calcium channel block, whole cell patch clamp in HEK 293 cells; type: cell-based; conditions: holding potential −80 mV to +10 mV
T2 construct: expressed in transfected cells
Method: N-type calcium channel blocking activity was assayed in human embryonic kidney cells, HEK 293, stably transfected with the rat brain N-type calcium channel subunits (α1B+α2δ+β1b cDNA subunits). Alternatively, N-type calcium channels (α1B+α2δ+β1b cDNA subunits), L-type channels (α1C+α2δ+β1b cDNA subunits) and P/Q-type channels (α1A+α2δ+β1b cDNA subunits) were transiently expressed in HEK 293 cells. Briefly, cells were cultured in Dulbecco's modified eagle medium (DMEM) supplemented with 10% fetal bovine serum, 200 U/ml penicillin and 0.2 mg/ml streptomycin at 37° C. with 5% CO2. At 85% confluency cells were split with 0.25% trypsin/1 mM EDTA and plated at 10% confluency on glass coverslips. At 12 hours the medium was replaced and the cells transiently transfected using a standard calcium phosphate protocol and the appropriate calcium channel cDNA's. Fresh DMEM was supplied and the cells transferred to 28° C./5% CO2. Cells were incubated for 1 to 2 days prior to whole cell recording.
Whole cell patch clamp experiments were performed using an Axopatch 200B amplifier (Axon Instruments, Burlingame, Calif.) linked to a personal computer equipped with pCLAMP software. The external and internal recording solutions contained, respectively, 5 mM BaCl2, 10 mM MgCl2, 10 mM HEPES, 40 mM TEAC1, 10 mM glucose, 87.5 mM CsCl (pH 7.2) and 108 mM CsMS, 4 mM MgCl2, 9 mM EGTA, 9 mM HEPES (pH 7.2). Currents were typically elicited from a holding potential of −80 mV to +10 mV using Clampex software (Axon Instruments). Typically, currents were first elicited with low frequency stimulation (0.067 Hz) and allowed to stabilize prior to application of the compounds. The compounds were then applied during the low frequency pulse trains for two to three minutes to assess tonic block, and subsequently the pulse frequency was increased to 0.2 Hz to assess frequency dependent block. Data were analyzed using Clampfit (Axon Instruments) and SigmaPlot 4.0 (Jandel Scientific).

[3] = tested on: rat formalin model; assay: Formalin-induced pain model (paw flinches); type: in vivo; conditions: 30 mg/kg IP, 10 min before formalin, ±SEM, saline control=100%
Method: The effects of intrathecally delivered compounds of the invention on the rat formalin model were measured. The compounds were reconstituted to stock solutions of approximately 10 mg/ml in propylene glycol. Eight Holtzman male rats of 275-375 g size were randomly selected per test article.
The following study groups were used, with test article, vehicle control (propylene glycol) and saline delivered intraperitoneally (IP):
Prior to initiation of drug delivery baseline behavioral and testing data were taken.
On the morning of testing, a small metal band (0.5 g) was loosely placed around the right hind paw. The rat was placed in a cylindrical Plexiglas chamber for adaptation a minimum of 30 minutes. Test Article or Vehicle Control Article was administered 10 minutes prior to formalin injection (50 μl of 5% formalin) into the dorsal surface of the right hind paw of the rat. The animal was then placed into the chamber of the automated formalin apparatus where movement of the formalin injected paw was monitored and the number of paw flinches tallied by minute over the next 60 minutes (Malmberg, A. B., et al., Anesthesiology (1993) 79:270-281).
Results are presented as Maximum Possible Effect ±SEM, where saline control=100%.

[4] = inactivation protocol, @ −80 mV, read-out: IC50 @ −80 mV
[5] = non-inactivating protocol, pre-pulse −100 mV, test pulse −40 mV, read-out: IC50 @ −100 mV
[6] = low frequency stimulation 0.067 Hz (tonic block), read-out: IC50 @ 0.067 Hz
[7] = pulse frequency 0.2 Hz (frequency dependent block), read-out: IC50 @ 0.2 Hz

T2 sequence (Q02294 whole entry): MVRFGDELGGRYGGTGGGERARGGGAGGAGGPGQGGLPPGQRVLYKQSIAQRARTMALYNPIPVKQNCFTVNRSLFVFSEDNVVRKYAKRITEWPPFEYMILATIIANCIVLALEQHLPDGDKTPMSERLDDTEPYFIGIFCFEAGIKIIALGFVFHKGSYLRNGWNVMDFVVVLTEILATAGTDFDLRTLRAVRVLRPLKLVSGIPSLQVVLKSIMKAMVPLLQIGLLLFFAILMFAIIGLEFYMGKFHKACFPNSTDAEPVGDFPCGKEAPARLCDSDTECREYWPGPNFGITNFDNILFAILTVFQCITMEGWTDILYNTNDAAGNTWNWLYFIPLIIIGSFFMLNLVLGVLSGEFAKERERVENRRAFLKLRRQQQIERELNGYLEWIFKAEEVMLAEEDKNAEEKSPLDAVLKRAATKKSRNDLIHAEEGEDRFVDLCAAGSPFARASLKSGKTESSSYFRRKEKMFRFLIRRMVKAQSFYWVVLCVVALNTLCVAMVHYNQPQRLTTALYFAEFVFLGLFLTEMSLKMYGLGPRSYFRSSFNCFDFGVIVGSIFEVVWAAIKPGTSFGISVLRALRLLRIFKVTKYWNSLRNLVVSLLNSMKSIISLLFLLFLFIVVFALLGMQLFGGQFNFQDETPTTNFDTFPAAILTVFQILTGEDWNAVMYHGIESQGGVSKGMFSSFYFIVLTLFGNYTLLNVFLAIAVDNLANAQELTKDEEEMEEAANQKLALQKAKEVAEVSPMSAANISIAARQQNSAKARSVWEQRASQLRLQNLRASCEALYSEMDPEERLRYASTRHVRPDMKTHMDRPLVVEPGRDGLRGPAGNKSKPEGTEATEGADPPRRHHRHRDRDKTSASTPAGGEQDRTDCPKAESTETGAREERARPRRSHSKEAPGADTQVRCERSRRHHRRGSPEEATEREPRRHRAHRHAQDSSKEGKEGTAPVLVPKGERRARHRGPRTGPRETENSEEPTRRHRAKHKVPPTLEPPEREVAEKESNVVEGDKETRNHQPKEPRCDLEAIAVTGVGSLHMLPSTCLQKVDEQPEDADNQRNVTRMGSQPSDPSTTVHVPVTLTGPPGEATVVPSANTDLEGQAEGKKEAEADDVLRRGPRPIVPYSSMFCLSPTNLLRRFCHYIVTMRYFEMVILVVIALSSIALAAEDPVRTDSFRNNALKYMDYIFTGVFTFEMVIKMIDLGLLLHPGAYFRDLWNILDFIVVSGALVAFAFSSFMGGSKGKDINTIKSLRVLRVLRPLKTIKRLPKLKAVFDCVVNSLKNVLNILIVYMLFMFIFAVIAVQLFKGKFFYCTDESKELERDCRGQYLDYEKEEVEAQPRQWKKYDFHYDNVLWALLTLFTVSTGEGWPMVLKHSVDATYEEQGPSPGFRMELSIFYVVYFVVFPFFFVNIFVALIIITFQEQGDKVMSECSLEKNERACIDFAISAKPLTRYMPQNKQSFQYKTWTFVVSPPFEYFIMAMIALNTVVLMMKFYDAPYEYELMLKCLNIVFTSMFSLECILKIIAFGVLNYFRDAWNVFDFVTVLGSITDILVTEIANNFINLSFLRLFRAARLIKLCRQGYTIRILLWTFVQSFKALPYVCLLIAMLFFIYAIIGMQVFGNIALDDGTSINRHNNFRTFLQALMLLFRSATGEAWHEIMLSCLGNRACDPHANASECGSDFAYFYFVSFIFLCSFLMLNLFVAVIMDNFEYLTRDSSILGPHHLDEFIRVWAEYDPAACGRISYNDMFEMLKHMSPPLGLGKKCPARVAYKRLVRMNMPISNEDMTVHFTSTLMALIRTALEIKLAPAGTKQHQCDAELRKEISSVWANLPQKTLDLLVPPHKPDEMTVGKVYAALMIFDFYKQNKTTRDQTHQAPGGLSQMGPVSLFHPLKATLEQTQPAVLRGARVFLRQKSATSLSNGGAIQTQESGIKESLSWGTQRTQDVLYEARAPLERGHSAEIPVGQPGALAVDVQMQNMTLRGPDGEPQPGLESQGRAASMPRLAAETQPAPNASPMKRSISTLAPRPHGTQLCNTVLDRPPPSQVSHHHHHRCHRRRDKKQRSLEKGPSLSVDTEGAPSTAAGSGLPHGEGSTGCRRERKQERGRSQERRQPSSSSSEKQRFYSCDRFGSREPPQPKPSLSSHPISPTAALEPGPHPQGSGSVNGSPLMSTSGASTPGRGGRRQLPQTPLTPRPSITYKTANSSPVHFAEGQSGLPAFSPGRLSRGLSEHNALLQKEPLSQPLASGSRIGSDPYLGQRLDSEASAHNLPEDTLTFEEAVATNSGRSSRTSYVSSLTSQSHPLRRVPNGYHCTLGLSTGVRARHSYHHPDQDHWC
T2 sequence (P54290 25-1091 partner): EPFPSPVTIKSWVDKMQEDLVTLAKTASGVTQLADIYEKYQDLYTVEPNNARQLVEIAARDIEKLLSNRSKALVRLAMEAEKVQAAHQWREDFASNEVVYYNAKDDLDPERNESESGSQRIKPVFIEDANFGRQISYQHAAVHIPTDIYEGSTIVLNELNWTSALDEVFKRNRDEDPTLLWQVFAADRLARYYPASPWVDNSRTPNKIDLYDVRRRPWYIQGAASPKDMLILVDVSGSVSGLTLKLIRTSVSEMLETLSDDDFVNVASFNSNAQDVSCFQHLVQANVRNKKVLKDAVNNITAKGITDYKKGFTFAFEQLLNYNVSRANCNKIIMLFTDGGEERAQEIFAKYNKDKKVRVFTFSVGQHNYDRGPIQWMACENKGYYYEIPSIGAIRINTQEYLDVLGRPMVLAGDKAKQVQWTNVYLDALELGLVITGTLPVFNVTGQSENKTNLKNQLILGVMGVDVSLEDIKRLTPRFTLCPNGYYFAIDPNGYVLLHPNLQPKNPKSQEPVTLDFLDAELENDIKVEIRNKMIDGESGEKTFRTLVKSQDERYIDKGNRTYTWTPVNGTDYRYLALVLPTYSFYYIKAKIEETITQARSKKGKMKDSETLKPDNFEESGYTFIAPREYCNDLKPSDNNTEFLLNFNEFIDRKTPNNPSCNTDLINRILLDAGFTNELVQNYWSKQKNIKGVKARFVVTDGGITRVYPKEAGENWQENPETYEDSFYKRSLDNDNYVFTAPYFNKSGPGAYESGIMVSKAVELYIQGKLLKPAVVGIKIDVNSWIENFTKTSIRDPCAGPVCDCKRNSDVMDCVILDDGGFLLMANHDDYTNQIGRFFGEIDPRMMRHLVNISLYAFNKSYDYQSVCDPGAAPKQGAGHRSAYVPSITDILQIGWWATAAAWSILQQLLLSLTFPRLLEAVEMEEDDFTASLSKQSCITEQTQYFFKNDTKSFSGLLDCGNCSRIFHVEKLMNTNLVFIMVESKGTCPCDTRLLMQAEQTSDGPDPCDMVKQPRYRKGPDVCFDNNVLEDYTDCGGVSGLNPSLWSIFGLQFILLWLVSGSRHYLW
T2 sequence (P54283 whole entry partner): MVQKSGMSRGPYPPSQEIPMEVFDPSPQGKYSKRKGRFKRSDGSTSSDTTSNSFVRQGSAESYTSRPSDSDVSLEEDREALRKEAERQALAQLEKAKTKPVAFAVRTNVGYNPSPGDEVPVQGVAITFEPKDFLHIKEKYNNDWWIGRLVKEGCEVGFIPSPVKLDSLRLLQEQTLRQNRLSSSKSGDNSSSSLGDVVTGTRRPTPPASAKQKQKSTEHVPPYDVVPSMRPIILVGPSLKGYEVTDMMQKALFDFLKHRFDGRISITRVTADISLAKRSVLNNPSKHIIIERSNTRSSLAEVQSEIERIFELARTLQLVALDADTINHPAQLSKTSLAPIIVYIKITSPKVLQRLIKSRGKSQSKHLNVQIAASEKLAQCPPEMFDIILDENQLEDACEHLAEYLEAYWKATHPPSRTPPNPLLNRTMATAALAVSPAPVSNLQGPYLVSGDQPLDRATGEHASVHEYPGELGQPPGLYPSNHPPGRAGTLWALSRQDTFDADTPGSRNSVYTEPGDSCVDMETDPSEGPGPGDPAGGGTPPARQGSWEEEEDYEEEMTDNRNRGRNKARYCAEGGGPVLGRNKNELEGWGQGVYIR

SMILES | IC50 [1, 4] [nM] | IC50 [1, 5] [nM] | IC50 [2, 6] [nM] | IC50 [2, 7] [nM] | Phase I (% MPE) [3] [% MPE] | Phase II Total (% MPE) [3] [% MPE] | Phase IIA (% MPE) [3] [% MPE] | Phase IIB (% MPE) [3] [% MPE]
O=C(NC(c1ccccc1)c1ccccc1)N1CCN(C(c2ccccc2)c2ccc(Cl)cc2Cl)CC1 (stereo not drawn) [Compound 2, 4-[(2,4-Dichloro-phenyl)-phenyl-methyl]-piperazine-1-carboxylic acid benzhydryl-amide] | 66 | 221 | 1480 | 1480 |  |  |  | 
Cc1ccc(C(c2ccccc2)N2CCN(C(=O)NC(c3ccccc3)c3ccccc3)CC2)c(C)c1 (stereo not drawn) [Compound 3] | 28 | 75 | 2710 | 2710 |  |  |  | 
O=C(NC(c1ccccc1)c1ccccc1)N1CCN(C(c2ccccc2)c2ccc(Cl)cc2)CC1 (stereo not drawn) [Compound 4, 4-[(4-Chloro-phenyl)-phenyl-methyl]-piperazine-1-carboxylic acid benzhydryl-amide] | 56 | 171 | 290 | 280 | 71 ± 15 | 74 ± 11 | 70 ± 13 | 88 ± 9
O=C(NC(c1ccccc1)c1ccccc1)N1CCN(C(c2ccccc2)c2cccc(Cl)c2)CC1 (stereo not drawn) [Compound 5, 4-[(3-Chloro-phenyl)-phenyl-methyl]-piperazine-1-carboxylic acid benzhydryl-amide] | 53 | 242 | 390 | 340 | 54 ± 11 | 65 ± 10 | 52 ± 10 | 105 ± 13
O=C(NC(c1ccccc1)c1ccccc1)N1CCN(C(c2ccccc2)c2ccccc2Cl)CC1 (stereo not drawn) [Compound 6, 4-[(2-Chloro-phenyl)-phenyl-methyl]-piperazine-1-carboxylic acid benzhydryl-amide] | 47 | 147 | 280 | 180 | 53 ± 10 | 71 ± 7 | 63 ± 9 | 99 ± 5
O=C(NC(c1ccccc1)c1ccccc1)N1CCN(C(c2ccccc2)c2cccc(Cl)c2Cl)CC1 (stereo not drawn) [Compound 7, 4-[(2,3-Dichloro-phenyl)-phenyl-methyl]-piperazine-1-carboxylic acid benzhydryl-amide] | 324 | 4200 | 230 | 200 | 61 ± 6 | 71 ± 7 | 63 ± 9 | 85 ± 20
CN1CCC(CN2CCN(C(=O)NC(c3ccccc3)c3ccccc3)CC2)CC1 [Compound 10, 4-(1-Methyl-piperidin-4-yl-methyl)-piperazine-1-carboxylic acid benzhydryl-amide] | 20000 | 20000 | 260 | 260 |  |  |  | 
CN(C)CCCN1CCN(C(=O)NC(c2ccccc2)c2ccccc2)CC1 [Compound 11, 4-(3-Dimethylamino-propyl)-piperazine-1-carboxylic acid benzhydryl-amide] |  |  | 2170 | 990 | 59 ± 13 | 60 ± 12 | 50 ± 14 | 94 ± 22
CN1CCCC(CN2CCN(C(=O)NC(c3ccccc3)c3ccccc3)CC2)C1 (stereo not drawn) [Compound 12, 4-(1-Methyl-piperidin-3-ylmethyl)-piperazine-1-carboxylic acid benzhydryl-amide] |  |  | 1700 | 490 |  |  |  | 
CN1CCC(C(c2ccccc2)N2CCN(C(=O)NC(c3ccccc3)c3ccccc3)CC2)CC1 (stereo not drawn) [Compound 20, 4-[(1-Methyl-piperidin-4-yl)-phenyl-methyl]-piperazine-1-carboxylic acid benzhydryl-amide] | 3400 | 5100 |  |  |  |  |  | 
O=C(NC(c1ccccc1)c1ccccc1)N1CCN(CCN2CCCC2)CC1 [Compound 21] | 2000 | 15000 | 1000 | 1000 |  |  |  | 
CN1CCCC(C(c2ccccc2)N2CCN(C(=O)NC(c3ccccc3)c3ccccc3)CC2)C1 (stereo not drawn) [Compound 22, 4-[(1-Methyl-piperidin-3-yl)-phenyl-methyl]-piperazine-1-carboxylic acid benzhydryl-amide] |  |  | 6300 | 2150 |  |  |  | 
CN1CCC(C(c2ccc(Cl)cc2)N2CCN(C(=O)NC(c3ccccc3)c3ccccc3)CC2)CC1 (stereo not drawn) [Compound 24, 4-[(1-Methyl-piperidin-4-yl)-(4-chloro-phenyl)-methyl]-piperazine-1-carboxylic acid benzhydryl-amide] |  |  | 4310 | 2460 |  |  |  | 
CN1CCC[C@H]1CN1CCN(C(=O)NC(c2ccccc2)c2ccccc2)CC1 [Compound 25] |  |  | > 5900 |  |  |  |  | 
CN(C(=O)N1CCN(CCN2CCCC2)CC1)C(c1ccccc1)c1ccccc1 [Compound 32, 4-(2-pyrrolidin-1-ylethyl)-piperazine-1-carboxylic acid benzhydryl-methyl-amide] | > 6720 | > 23000 | > 20000 | > 8800 |  |  |  | 
O=C(NC(c1ccccc1)c1ccccc1)N1CCN(C(c2ccccc2)C2CCNCC2)CC1 (stereo not drawn) [Compound 35, 4-[Piperidin-4-yl-phenyl-methyl]-piperazine-1-carboxylic acid benzhydryl-amide] |  | 663 | 3470 | 2160 |  |  |  | 
Cc1ccc(C(C2CCN(C)CC2)N2CCN(C(=O)NC(c3ccccc3)c3ccccc3)CC2)c(C)c1 (stereo not drawn) [Compound 36, 4-[(1-Methyl-piperidin-4-yl)-(2,4-dimethyl-phenyl)-methyl]-piperazine-1-carboxylic acid benzhydryl-amide] | 1300 | 1900 |  |  |  |  |  | 
CN1CCC(C(c2ccccc2Cl)N2CCN(C(=O)NC(c3ccccc3)c3ccccc3)CC2)CC1 (stereo not drawn) [Compound 37, 4-[(1-Methyl-piperidin-4-yl)-(2-chloro-phenyl)-methyl]-piperazine-1-carboxylic acid benzhydryl-amide] |  |  | 1330 | 910 |  |  |  | 
CN1CCC(C(c2cccc(Cl)c2)N2CCN(C(=O)NC(c3ccccc3)c3ccccc3)CC2)CC1 (stereo not drawn) [Compound 38, 4-[(1-Methyl-piperidin-4-yl)-(3-chloro-phenyl)-methyl]-piperazine-1-carboxylic acid benzhydryl-amide] |  |  | 3310 | 1560 |  |  |  | 
CN(C(=O)N1CCN(C(c2ccccc2)c2ccccc2)CC1)C(c1ccccc1)c1ccccc1 [Compound 39, 4-(Diphenyl-methyl)-piperazine-1-carboxylic acid benzhydryl-methyl-amide] |  |  | 660 | 310 |  |  |  | 
